Test results from PubChem BioAssay AID200 (DTP/NCI, 2004).
Values joined by “and” are separate entries in the source; they are usually repeats but may differ in a detail not shown here. Equal entries are not always repeated. Toxic doses and inconclusive results are not listed.

Tested on: B6C3F1 mice, B16 melanoma ip, median survival T/C
Assay: NCI In Vivo Anticancer Drug Screen. Data for tumor model B16 Melanoma (intraperitoneal) in B6C3F1 mice
Conditions: endpoint: median survival time, higher = longer survival
Procedure, shortened: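 Readout: survival or tumor size in treated mice relative to vehicle controls (T/C). Model uses transplantable tumors grown in mice.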

[1] = dose: 50.0 mg/kg/injection, schedule: Q01DX009 (ip), vehicle: suspension in saline
[2] = dose: 100.0 mg/kg/injection, schedule: Q01DX009 (ip), vehicle: suspension in saline
[3] = dose: 200.0 mg/kg/injection, schedule: Q01DX009 (ip), vehicle: suspension in saline
[4] = dose: 400.0 mg/kg/injection, schedule: Q01DX009 (ip), vehicle: suspension in saline
[5] = dose: 800.0 mg/kg/injection, schedule: Q01DX009 (ip), vehicle: suspension in saline
[6] = dose: 12.5 mg/kg/injection, schedule: Q01DX009 (ip), vehicle: saline
[7] = dose: 25.0 mg/kg/injection, schedule: Q01DX009 (ip), vehicle: saline
[8] = dose: 400.0 mg/kg/injection, schedule: Q01DX009 (ip), vehicle: saline
[9] = dose: 25.0 mg/kg/injection, schedule: Q01DX009 (ip), vehicle: suspension in saline
[10] = dose: 25.0 mg/kg/injection, schedule: Q01DX009 (ip), vehicle: saline with Tween-80
[11] = dose: 50.0 mg/kg/injection, schedule: Q01DX009 (ip), vehicle: saline with Tween-80
[12] = dose: 100.0 mg/kg/injection, schedule: Q01DX009 (ip), vehicle: saline with Tween-80
[13] = dose: 6.25 mg/kg/injection, schedule: Q01DX009 (ip), vehicle: saline
[14] = dose: 12.5 mg/kg/injection, schedule: Q01DX009 (ip), vehicle: saline with Tween-80
[15] = dose: 200.0 mg/kg/injection, schedule: Q01DX009 (ip), vehicle: saline with Tween-80
[16] = dose: 100.0 mg/kg/injection, schedule: Q01DX009 (ip), vehicle: saline
[17] = dose: 200.0 mg/kg/injection, schedule: Q01DX009 (ip), vehicle: saline
[18] = dose: 100.0 mg/kg/injection, schedule: Q01DX009 (ip), vehicle: Klucel (hydroxypropylcellulose) (HPC)
[19] = dose: 200.0 mg/kg/injection, schedule: Q01DX009 (ip), vehicle: Klucel (hydroxypropylcellulose) (HPC)
[20] = dose: 400.0 mg/kg/injection, schedule: Q01DX009 (ip), vehicle: Klucel (hydroxypropylcellulose) (HPC)
[21] = dose: 12.5 mg/kg/injection, schedule: Q01DX009 (ip), vehicle: Klucel (hydroxypropylcellulose) (HPC)
[22] = dose: 25.0 mg/kg/injection, schedule: Q01DX009 (ip), vehicle: Klucel (hydroxypropylcellulose) (HPC)
[23] = dose: 50.0 mg/kg/injection, schedule: Q01DX009 (ip), vehicle: Klucel (hydroxypropylcellulose) (HPC)
[24] = dose: 50.0 mg/kg/injection, schedule: Q01DX009 (ip), vehicle: saline
[25] = dose: 3.12 mg/kg/injection, schedule: Q01DX009 (ip), vehicle: Klucel (hydroxypropylcellulose) (HPC)

## N[C@@H](Cc1c[nH]c2ccccc12)C(=O)Nc1nncs1
[1]
  T/C: 94 % of control
[2]
  T/C: 95 % of control
[3]
  T/C: 103 % of control
[4]
  T/C: 106 % of control
[5]
  T/C: 109 % of control

## NC(CCC(=O)NC(CS)C(=O)NCC(=O)O)C(=O)O (configuration not stated)
[6]
  T/C: 94 % of control
[7]
  T/C: 113 % of control and 86 % of control and 101 % of control
[8]
  T/C: 91 % of control and 104 % of control and 107 % of control

## CS(=O)(=O)Nc1ccc(C(=O)CCN2CCCCCC2)cc1
[9]
  T/C: 122 % of control
[1]
  T/C: 98 % of control
[2]
  T/C: 96 % of control
[3]
  T/C: 92 % of control

## CC1Nc2ccccc2NC1C (configuration not stated)
[10]
  T/C: 108 % of control
[11]
  T/C: 98 % of control
[12]
  T/C: 96 % of control

## CCOc1ccc(-c2nc3ccc(-c4nc5ccc(N6CCN(C)CC6)cc5[nH]4)cc3[nH]2)cc1
dose: 1.56 mg/kg/injection, schedule: Q01DX009 (ip), vehicle: saline
  T/C: 113 % of control
dose: 3.12 mg/kg/injection, schedule: Q01DX009 (ip), vehicle: saline
  T/C: 114 % of control
[13]
  T/C: 110 % of control
[6]
  T/C: 110 % of control

## CC1(C)CC1(Br)Br
dose: 6.25 mg/kg/injection, schedule: Q01DX009 (ip), vehicle: saline with Tween-80
  T/C: 100 % of control
[14]
  T/C: 93 % of control
[10]
  T/C: 104 % of control
[11]
  T/C: 97 % of control
[12]
  T/C: 100 % of control
[15]
  T/C: 92 % of control

## CC(C)(C)OC(=O)NC(CCC(=O)O)C(=O)O (configuration not stated)
[16]
  T/C: 107 % of control
[17]
  T/C: 107 % of control
[8]
  T/C: 94 % of control

## CC1Oc2cc3c(-c4c(O)cc(O)c5c(O)c6c(cc45)OC(C)C(C)C6=O)c(O)cc(O)c3c(O)c2C(=O)C1C (configuration not stated)
dose: 0.31 mg/kg/injection, schedule: Q01DX009 (ip), vehicle: suspension in saline
  T/C: 117 % of control
dose: 0.62 mg/kg/injection, schedule: Q01DX009 (ip), vehicle: suspension in saline
  T/C: 101 % of control
dose: 1.25 mg/kg/injection, schedule: Q01DX009 (ip), vehicle: suspension in saline
  T/C: 109 % of control
dose: 2.5 mg/kg/injection, schedule: Q01DX009 (ip), vehicle: suspension in saline
  T/C: 116 % of control

## Ic1ccc2c(c1)N(c1ccccc1)c1cc(N=c3ccc4nc5ccc(I)cc5n(-c5ccccc5)c-4c3)ccc1N2
[18]
  T/C: 91 % of control
[19]
  T/C: 94 % of control
[20]
  T/C: 91 % of control

## Nc1nc(=S)c2ncn(C3OC(CO)CC3O)c2[nH]1 (configuration not stated)
dose: 5.0 mg/kg/injection, schedule: Q01DX009 (ip), vehicle: saline
  T/C: 110 % of control
dose: 10.0 mg/kg/injection, schedule: Q01DX009 (ip), vehicle: saline
  T/C: 122 % of control
dose: 40.0 mg/kg/injection, schedule: Q01DX009 (ip), vehicle: saline
  T/C: 94 % of control

## CC1=NNC(=O)C1CCO (configuration not stated)
[21]
  T/C: 98 % of control
[22]
  T/C: 104 % of control
[23]
  T/C: 98 % of control
[18]
  T/C: 98 % of control
[19]
  T/C: 96 % of control
[20]
  T/C: 96 % of control

## CCC(NC(N)=O)C(CC)NC(N)=O (configuration not stated)
[14]
  T/C: 99 % of control
[10]
  T/C: 96 % of control
[11]
  T/C: 89 % of control

## Nc1nc(=S)c2ncn(C3CC(O)C(CO)O3)c2[nH]1 (configuration not stated)
[6]
  T/C: 101 % of control
[7]
  T/C: 96 % of control
[24]
  T/C: 104 % of control
[16]
  T/C: 104 % of control
[17]
  T/C: 103 % of control
[8]
  T/C: 103 % of control

## CNC(=O)OCc1c(COC(=O)NC)c(C)n(-c2ccc(OC)cc2)c1C
[25]
  T/C: 112 % of control
[23]
  T/C: 111 % of control

## O=c1[nH]cccc1O
dose: 16.0 mg/kg/injection, schedule: Q01DX009 (ip), vehicle: saline with Tween-80
  T/C: 101 % of control
dose: 32.0 mg/kg/injection, schedule: Q01DX009 (ip), vehicle: saline with Tween-80
  T/C: 92 % of control
dose: 64.0 mg/kg/injection, schedule: Q01DX009 (ip), vehicle: saline with Tween-80
  T/C: 93 % of control
dose: 128.0 mg/kg/injection, schedule: Q01DX009 (ip), vehicle: saline with Tween-80
  T/C: 105 % of control
dose: 256.0 mg/kg/injection, schedule: Q01DX009 (ip), vehicle: saline with Tween-80
  T/C: 99 % of control

## COc1ccc(Cl)[n+]([O-])n1
[25]
  T/C: 93 % of control
dose: 6.25 mg/kg/injection, schedule: Q01DX009 (ip), vehicle: Klucel (hydroxypropylcellulose) (HPC)
  T/C: 88 % of control
[21]
  T/C: 94 % of control
[22]
  T/C: 99 % of control
[23]
  T/C: 93 % of control

## COc1cccc2c1C(=O)c1c(O)c3c(c(O)c1C2=O)C[C@@](O)(C(=O)CO)C[C@@H]3OC1CC(N2CCOCC2C#N)C(O)C(C)O1 (some centres not stated)
dose: 9.38 micrograms/kg/injection, schedule: Q01DX001 (ip), vehicle: water
  T/C: 156 % of control
dose: 18.75 micrograms/kg/injection, schedule: Q01DX001 (ip), vehicle: water
  T/C: 153 % of control
dose: 37.5 micrograms/kg/injection, schedule: Q01DX001 (ip), vehicle: water
  T/C: 156 % of control

## Clc1ccc2nnnn2n1
[14]
  T/C: 95 % of control
[10]
  T/C: 105 % of control
[11]
  T/C: 108 % of control and 116 % of control and 123 % of control
[12]
  T/C: 111 % of control
[15]
  T/C: 167 % of control

## CCOc1ccccc1C(=O)Nc1ccc(Br)cc1
[23]
  T/C: 117 % of control
[19]
  T/C: 117 % of control

## OC1CCCC2CCC[N-]C12.OC1CCCC2CCC[N-]C12.[Mn+2] (configuration not stated)
[22]
  T/C: 109 % of control
[23]
  T/C: 102 % of control

## C1CN1P1(N2CC2)=NP(N2CC2)(N2CC2)=NP(N2CC2)(N2CC2)=N1
dose: 1.0 mg/kg/injection, schedule: Q01DX009 (ip), vehicle: Klucel (hydroxypropylcellulose) (HPC)
  T/C: 116 % of control and 94 % of control
dose: 1.0 mg/kg/injection, schedule: Q02DX009 (ip), vehicle: Klucel (hydroxypropylcellulose) (HPC)
  T/C: 113 % of control and 114 % of control
dose: 2.0 mg/kg/injection, schedule: Q01DX009 (ip), vehicle: Klucel (hydroxypropylcellulose) (HPC)
  T/C: 119 % of control
dose: 2.0 mg/kg/injection, schedule: Q02DX009 (ip), vehicle: Klucel (hydroxypropylcellulose) (HPC)
  T/C: 114 % of control and 106 % of control
dose: 4.0 mg/kg/injection, schedule: Q02DX009 (ip), vehicle: Klucel (hydroxypropylcellulose) (HPC)
  T/C: 120 % of control and 122 % of control
dose: 8.0 mg/kg/injection, schedule: Q01DX009 (ip), vehicle: Klucel (hydroxypropylcellulose) (HPC)
  T/C: 180 % of control
dose: 8.0 mg/kg/injection, schedule: Q02DX009 (ip), vehicle: Klucel (hydroxypropylcellulose) (HPC)
  T/C: 117 % of control
dose: 16.0 mg/kg/injection, schedule: Q02DX009 (ip), vehicle: Klucel (hydroxypropylcellulose) (HPC)
  T/C: 195 % of control

## CC(=O)N(C)c1ccc(Nc2cc(C)[nH]c3ccc4ncnc4c23)cc1
[13]
  T/C: 122 % of control
[6]
  T/C: 171 % of control and 178 % of control
[7]
  T/C: 177 % of control and 198 % of control
[24]
  T/C: 177 % of control and 184 % of control

## Cc1cn(C2CC3[O][Sn]([c]4ccccc4)([c]4ccccc4)[O]CC3O2)c(=O)[nH]c1=O (configuration not stated)
[9]
  T/C: 102 % of control
[1]
  T/C: 103 % of control
[2]
  T/C: 113 % of control
[3]
  T/C: 93 % of control

## O=C(N[C@H](CO)[C@H](O)c1ccc([N+](=O)[O-])cc1)C(Cl)Cl
[11]
  T/C: 117 % of control
[12]
  T/C: 103 % of control
[15]
  T/C: 109 % of control
dose: 400.0 mg/kg/injection, schedule: Q01DX009 (ip), vehicle: saline with Tween-80
  T/C: 97 % of control
dose: 800.0 mg/kg/injection, schedule: Q01DX009 (ip), vehicle: saline with Tween-80
  T/C: 100 % of control

## N#C[C@H](OC1OC(COC2OC(CO)C(O)C(O)C2O)C(O)C(O)C1O)c1ccccc1 (some centres not stated)
dose: 12.5 mg/kg/injection, schedule: Q01DX009 (oral), vehicle: saline
  T/C: 96 % of control
[9]
  T/C: 98 % of control
dose: 25.0 mg/kg/injection, schedule: Q01DX009 (oral), vehicle: saline
  T/C: 101 % of control
[1]
  T/C: 98 % of control
dose: 50.0 mg/kg/injection, schedule: Q01DX009 (oral), vehicle: saline
  T/C: 98 % of control (2×) and 102 % of control
[2]
  T/C: 108 % of control
[3]
  T/C: 121 % of control
[4]
  T/C: 103 % of control
[5]
  T/C: 111 % of control
